Reference: US20260248800A1, “FERROPTOSIS INHIBITORS AND USES THEREOF” (UNIVERSITY OF OTTAWA, priority 2022, published 2026)
Where two headings read alike, the source gives them in different places. Marks after values point to notes of the source that are not given here.

How the values were obtained:
[1] = tested on: Pfa-1 mouse embryonic fibroblasts (MEFs)
[2] = MeOAMVN-initiated co-autoxidation of STY-BODIPY and egg PC liposomes (FENIX); assay type: biochemical; details: for n (radical-trapping stoichiometry): MeOAMVN-initiated co-autoxidation of STY-BODIPY and egg PC liposomes
[3] = tested on: Pfa-1 mouse embryonic fibroblasts (MEFs); test: cells; details: Fibroblast
[4] = H-bond acidity (α2^H) of the RTA by 1H NMR; assay type: physicochemical; details: estimated from the 1H NMR chemical shift difference of the amine proton in DMSO-d6 and benzene-d6
[5] = Liver microsome stability assay; details: pH 7.4
[6] = at 37° C. in PhCl; literature; cited from earlier work
MEFs = details: inhibition of RSL3-induced ferroptosis in MEFs; Shah et al., 2017; cited from earlier work
[7] = mouse, microsomes
[8] = inhibited autoxidation of styrene in chlorobenzene; cited from earlier work
[9] = in dilinoleoyl phosphatidylcholine (PC) liposomes; cited from earlier work
[10] = RSL3-induced cell death (150 nM for 5 hours), AquaBluer
[11] = apparent inhibition rate constant, MeOAMVN-initiated autoxidation of egg PC liposomes, determined by fluorescence
[12] = 5 h, read-out: Pfa-1 MEF Ferroptosis EC50, RSL3-induced cell death (150 nM for 5 hours), AquaBluer
[13] = Table 6, from survival curve of RSL3 induced ferroptosis of pfa-1 MEFS
[14] = apparent inhibition rate constant, MeOAMVN-initiated autoxidation of egg PC liposomes, determined by absorbance (STY-BODIPY 10-20 μM, 565 nm)
[15] = read-out: Pfa-1 MEF Ferroptosis EC50, RSL3-induced cell death (150 nM for 5 hours), AquaBluer
[16] = measured in MeOAMVN-initiated autoxidation of egg PC liposomes

CC(C)(C)c1ccc2c(c1)Oc1cc(C(F)(F)F)ccc1N2 [Compound 10, 3-tert-Butyl-7-trifluoromethylphenoxazine]
Pfa-1 MEF Ferroptosis EC50 [1, 10]: single-digit nanomolar potency
n (radical-trapping stoichiometry) [2]: 2.8 ± 0.1
kinh^lip [2, 11]: (55 ± 10) 10^5 M^−1s^−1
EC50 [3, 12]: 0.0052 ± 0.0002 µM
EC50 [3, 13]: 0.0052 ± 0.0002 µM

CC(C)(C)c1ccc2c(c1)Nc1cc(C(F)(F)F)ccc1O2 [Compound 8, 2-tert-Butyl-8-trifluoromethylphenoxazine]
Pfa-1 MEF Ferroptosis EC50 [1, 10]: single-digit nanomolar potency
n (radical-trapping stoichiometry) [2]: 2.3 ± 0.1
kinh^lip [2, 11]: (64 ± 9) 10^5 M^−1s^−1
EC50 [3, 12]: 0.0056 ± 0.0003 µM
EC50 [3, 13]: 0.0056 ± 0.0003 µM

c1ccc2c(c1)Nc1ccccc1S2 [Compound 2, phenothiazine, reference compound]
n (radical-trapping stoichiometry) [2]: 1.9 ± 0.1
kinh^lip [2, 14]: (110 ± 20)^e 10^5 M^−1s^−1
α2^H [4]: 0.38
half-life at 10 μM ([5]; BALB/c, mouse, liver microsomes): 11.5 min
EC50 [3, 12]: 0.024 ± 0.001 µM
EC50 [3, 13]: 0.024 ± 0.001 µM
kinh [6]: ~ 8×10^6 M^−1s^−1

O=[N+]([O-])c1ccc2c(c1)Sc1cc([N+](=O)[O-])ccc1N2 [Compound 29, 3,7-Dinitrophenothiazine, reference compound]
EC50 [1, 15]: ≥ 1 µM
kinh^lip [2, 11]: (0.41 ± 0.04) 10^5 M^−1s^−1
kinh^lip [2, 16]: 400 M⁻¹ s⁻¹
α2^H [4]: 0.62
EC50 [3, 12]: > 1 µM
viability at 1000 µM ([3]; read-out: apparent cell viability): ~50%

FC(F)(F)c1ccc2c(c1)Nc1ccccc1O2 [Compound 6, 2-trifluoromethylphenoxazine]
EC50 [1, 15]: 0.0088 ± 0.0005 µM
n (radical-trapping stoichiometry) [2]: 3.0 ± 0.1
kinh^lip [2, 11]: (75 ± 11) 10^5 M^−1s^−1
α2^H [4]: 0.51
EC50 [3, 12]: 0.009 µM

CC(C)(C)c1ccc2c(c1)Nc1ccc(C(F)(F)F)cc1O2 [Compound 11, 2-tert-Butyl-7-trifluoromethylphenoxazine]
Pfa-1 MEF Ferroptosis EC50 [1, 10]: single-digit nanomolar potency
n (radical-trapping stoichiometry) [2]: 2.6 ± 0.1
kinh^lip [2, 11]: (44 ± 3) 10^5 M^−1s^−1
EC50 [3, 12]: 0.0036 ± 0.0002 µM
EC50 [3, 13]: 0.0036 ± 0.0002 µM

Clc1ccc2c(c1)Nc1ccccc1S2 [Compound 24, reference compound]
EC50 [1, 15]: 0.056 ± 0.01 µM
n (radical-trapping stoichiometry) [2]: 2.1 ± 0.1
kinh^lip [2, 11]: (39 ± 4) 10^5 M^−1s^−1
α2^H [4]: 0.43

CCOC(=O)c1ccc(NC2CCCCC2)c(N)c1 [Fer-1, ferrostatin-1]
EC50 [1, 13]: 0.027 ± 0.002 µM
EC50 [1, 15]: 0.027 µM
EC50 (MEFs): 0.045 µM
t1/2 [7]: 5.3 ± 0.1 min
kinh [6]: 300000 M⁻¹ s⁻¹

Cc1ccc2c(c1)Oc1cc(C)ccc1N2 [Compound 35, 3,7-Dimethylphenoxazine]
EC50 [1, 15]: 0.0054 ± 0.0002 µM
kinh^lip ([2]; predicted from log kinh^0, α2^H and β2^H=0.69 using Eq. 4 (too reactive to be determined directly)): 1180 ^f 10^5 M^−1s^−1
predicted increase in kinh^lip relative to PNX ([2]; predicted/estimated kinh^lip vs PNX): 5.1 fold
α2^H [4]: 0.41
EC50 [3, 12]: 0.006 µM

Cc1c(C)c2c(c(C)c1O)CC[C@@](C)(CCC[C@H](C)CCC[C@H](C)CCCC(C)C)O2 [α-TOH, α-tocopherol]
kinh [8]: 3e+06 M⁻¹ s⁻¹
kinh [9]: 6000 M⁻¹ s⁻¹

c1ccc2c(c1)Nc1ccccc1O2 [Compound 1, phenoxazine, reference compound]
EC50 (MEFs): 0.009 µM
n (radical-trapping stoichiometry) [2]: 2.0 ± 0.1
kinh^lip [2, 14]: (232 ± 23)^e 10^5 M^−1s^−1
kinh^lip [2, 16]: 220000 M⁻¹ s⁻¹
α2^H [4]: 0.44
EC50 [3]: 0.016 ± 0.001 µM
EC50 ([3]; 5 h, read-out: Pfa-1 MEF Ferroptosis EC50): 0.016 µM
kinh [6]: ~ 4×10^7 M^−1s^−1

FC(F)(F)c1ccc2c(c1)Nc1ccccc1S2 [Compound 25, reference compound]
EC50 [1, 15]: 0.016 ± 0.001 µM
n (radical-trapping stoichiometry) [2]: 2.5 ± 0.1
kinh^lip [2, 11]: (19 ± 1) 10^5 M^−1s^−1
α2^H [4]: 0.44

Clc1cccc(CN=C2Nc3ccccc3NC23CCNCC3)c1 [Lip-1, liproxstatin-1]
EC50 [1, 13]: 0.018 ± 0.001 µM
EC50 [1, 15]: 0.018 µM
EC50 (MEFs): 0.035 µM
t1/2 ([5]; BALB/c mouse liver microsomes increased (1.0 mg/mL), 1 mM NADPH, 37° C., 10 μM compound (Verapamil 1 μM)): (133 ± 8.4) ^d min
kinh [6]: 200000 M⁻¹ s⁻¹

CC(C)(C)c1ccc2c(c1)Oc1ccc(C(F)(F)F)cc1N2 [Compound 7, 3-tert-Butyl-8-trifluoromethylphenoxazine]
Pfa-1 MEF Ferroptosis EC50 [1, 10]: single-digit nanomolar potency
n (radical-trapping stoichiometry) [2]: 2.8 ± 0.1
kinh^lip [2, 11]: (75 ± 13) 10^5 M^−1s^−1
EC50 [3, 12]: 0.0041 ± 0.0001 µM
EC50 [3, 13]: 0.0041 ± 0.0001 µM
